Test results reported in US20030157162A1, “Liposome-encapsulated opioid analgesics” (priority 2002, published 2003).
Where a name gives a salt, the structure may show the parent alone.

Tests used:
[1] = In vivo pharmacokinetics in dogs (ELISA, NONMEM model, trapezoidal AUC); set-up: species or system dog
Description: Twenty-five adult beagles (n=14; 12 female, 2 male) and hounds (n=11; 9 female, 2 male) that were 1 to 5 years old (median age 1.5 years) and weighed between 6.9 kg and 35.7 kg (median weight=9.46 kg) were used. Normal health status and organ function were confirmed by physical exam and a complete blood count and serum chemistry profile prior to inclusion in the study. None of the animals received any medications in the 2 weeks prior to study. Animals were housed individually (hounds) or in groups of 2 to 4 (beagles), and were fed a commercial diet and water ad libitum throughout the study.
(§1) Two doses of liposome-encapsulated oxymorphone and two equipotent doses of standard pharmaceutical oxymorphone were investigated. One dose of the liposomal vehicle was also investigated to confirm the absence of pharmacodynamic properties of the vehicle. Each dog received only 1 treatment and was then removed from further study. Treatment groups were as follows: Group 1 (n=6) liposome-encapsulated oxymorphone (1.0 mg/kg); Group 2 (n=5) liposome-encapsulated oxymorphone (0.5 mg/kg); Group 3 (n=6) standard pharmaceutical oxymorphone (NUMORPHAN®, Endo Pharmaceuticals Inc., Chadds Ford, Pa.) (0.1 mg/kg); Group 4 (n=6) standard pharmaceutical oxymorphone (0.05 mg/kg); Group 5 (n=2) liposomal vehicle (0.7 ml). Liposome-encapsulated oxymorphone or vehicle were drawn from a stock solution on ice via an 18 gauge needle attached to a 1- or 3-ml syringe and administered subcutaneously slowly via a 23 gauge needle. All injections were made in a shaved area of the thigh such that potential skin reactions to the liposomal preparations could be assessed.
A 1 ml blood sample was collected percutaneously from the left and right cephalic or saphenous veins, in rotating order. In groups 1 and 2 (liposome-encapsulated oxymorphone groups), blood was collected before and 0.5, 1, 2, 4, 8, 12, 16, and 24 hours after drug administration, and daily for 5 days at the same time of day as treatment administration had occurred. In groups 3, 4, and 5 (standard oxymorphone and liposomal vehicle groups), blood was collected before and 0.5, 1, 2, 4, 8, 12, and 24 hours after drug administration. Blood samples were transferred to centrifuge tubes and held on ice for a maximum of 4 hours, then centrifuged at 5° C. for 10 minutes at 5000×g. Serum was stored at −70° C. until analysis.
Oxymorphone concentrations in serum were quantitated using a commercial ELISA (Neogen Inc, Lexington, Ky.).
Plasma oxymorphone concentrations were used in pharmacokinetic model building using a non-linear, mixed effect computer program (NONMEM User's Guides, (1989-98) Beal and Sheiner (Eds.) GloboMax, LLC, Hanover, Md.). The data from all animals were evaluated concurrently. The assumption was made that the subcutaneous injection of the standard and liposomal oxymorphone delivered drug to an extravascular compartment from which unidirectional absorption into the blood occurred. In the case of the liposomal preparation, an additional, unidirectional rate constant of flux from the liposome to the surrounding subcutaneous compartment was assumed.
This was tested in the pharmacokinetic model construction with allowance for a variable (fitted) fraction of the liposomal dose administered directly to the subcutaneous space in the aqueous carrier.
The NONMEM model included an intersubject variability for the parameters of distribution volume, fraction of drug delivered to of the liposome, and drug flux into and out of the plasma. The first-order rate of drug loss from the liposome was assumed to be a physiochemical constant, and was not allowed to vary between animals. Animal weight and sex were tested as continuous and categorical covariates affecting volume and clearance. Pharmacokinetic models that included a tissue distribution compartment were over-parameterized and were discarded. […]

dogs = assay: Sedation score, heart rate, respiratory rate, temperature and skin reaction in dogs; format: in vivo, dog
Protocol: as §1
A sedation score was recorded on each dog prior to drug administration and at the same times as venous blood collection. The sedation score included recording of heart rate by auscultation, respiratory rate by observation of movement of the thoracic wall, and rectal temperature via a digital rectal thermometer. The same person assessed sedation scores throughout the study. Changes in sedation score, heart rate, respiratory rate, and temperature were analyzed using repeated measures ANOVA, with p<0.05 considered significant.

## CN1CC[C@]23c4c5ccc(O)c4O[C@H]2C(=O)CC[C@@]3(O)[C@H]1C5 [standard oxymorphone, oxymorphone hydrochloride]
[1]; 0.05 mg/kg
  AUC (dose-normalised, median): 128.0 (ng-hr/L)/mg/kg)
  K23 (from subcutaneous tissue to systemic tissue): 0.400 h⁻¹
  K30 (from systemic tissue to excretion from body): 5.40 h⁻¹
  V: 2.03 L
[1]; 0.1 mg/kg
  AUC (dose-normalised, median): 135.9 (ng-hr/L)/mg/kg)
  K23 (from subcutaneous tissue to systemic tissue): 0.348 h⁻¹
  K30 (from systemic tissue to excretion from body): 7.19 h⁻¹
  V: 1.50 L
dogs; 0.05 and 0.1 mg/kg
  time of peak sedation score: 30 min
dogs; either dose
  respiratory rate and rectal temperature compared to baseline: moderate and statistically insignificant decrease
dogs; s.c.
  local skin reactions at the site of injection: no local skin reactions
dogs; within clinically normal range
  heart rate from baseline to 2 hours after drug administration: significant decrease
